# Source: US8227207B2, “Bioactive peptides derived from the proteins of egg white by means of enzymatic hydrolysis” (Consejo Superior de Investigaciones Cientifcas, priority 2004, dated 2012)
# “Also recorded” adds a separate entry of the source. Residues, ends and D or L forms follow the SMILES beside them.
# T1: angiotensin converting enzyme (ACE, EC 3.4.15.1) (Oryctolagus cuniculus, UniProt P12822)
# T1 sequence (P12822 34-1310): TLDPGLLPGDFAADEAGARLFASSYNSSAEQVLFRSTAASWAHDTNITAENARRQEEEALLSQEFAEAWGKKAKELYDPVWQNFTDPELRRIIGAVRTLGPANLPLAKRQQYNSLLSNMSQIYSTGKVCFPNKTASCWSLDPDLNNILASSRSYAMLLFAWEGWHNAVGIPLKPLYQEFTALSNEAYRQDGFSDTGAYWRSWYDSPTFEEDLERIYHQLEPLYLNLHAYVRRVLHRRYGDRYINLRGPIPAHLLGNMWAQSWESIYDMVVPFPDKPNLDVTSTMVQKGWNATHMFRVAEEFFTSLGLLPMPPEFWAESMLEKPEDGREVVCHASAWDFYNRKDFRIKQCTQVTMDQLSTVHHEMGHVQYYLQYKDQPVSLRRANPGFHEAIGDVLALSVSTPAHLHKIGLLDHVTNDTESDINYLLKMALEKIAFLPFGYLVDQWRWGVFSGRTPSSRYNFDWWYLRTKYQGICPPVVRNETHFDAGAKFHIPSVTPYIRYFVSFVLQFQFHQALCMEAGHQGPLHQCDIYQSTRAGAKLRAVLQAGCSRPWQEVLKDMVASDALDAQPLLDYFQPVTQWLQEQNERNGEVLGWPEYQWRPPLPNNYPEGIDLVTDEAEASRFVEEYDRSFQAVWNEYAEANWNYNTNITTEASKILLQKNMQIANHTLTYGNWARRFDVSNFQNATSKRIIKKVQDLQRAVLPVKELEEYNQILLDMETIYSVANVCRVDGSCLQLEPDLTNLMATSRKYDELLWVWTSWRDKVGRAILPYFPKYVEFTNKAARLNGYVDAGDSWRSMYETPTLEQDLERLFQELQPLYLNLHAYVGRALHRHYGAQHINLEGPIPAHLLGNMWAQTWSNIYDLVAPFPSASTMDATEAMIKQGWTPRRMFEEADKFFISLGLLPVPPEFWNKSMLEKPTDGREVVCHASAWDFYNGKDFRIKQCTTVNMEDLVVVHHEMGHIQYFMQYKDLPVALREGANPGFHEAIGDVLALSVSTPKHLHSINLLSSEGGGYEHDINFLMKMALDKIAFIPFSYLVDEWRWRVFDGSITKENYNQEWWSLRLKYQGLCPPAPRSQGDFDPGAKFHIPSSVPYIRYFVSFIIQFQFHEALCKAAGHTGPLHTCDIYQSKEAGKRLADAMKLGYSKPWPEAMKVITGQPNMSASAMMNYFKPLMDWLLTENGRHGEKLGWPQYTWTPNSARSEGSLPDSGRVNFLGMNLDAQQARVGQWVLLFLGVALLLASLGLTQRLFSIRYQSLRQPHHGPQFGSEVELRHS
# B1: unhydrolysed ovalbumin: ovalbumin grade VI (99% purity) (Sigma), unhydrolysed (protein)
# chain: GSIGAASMEFCFDVFKELKVHHANENIFYCPIAIMSALAMVYLGAKDSTRTQINKVVRFDKLPGFGDSIEAQCGTSVNVHSSLRDILNQITKPNDVYSFSLASRLYAEERYPILPEYLQCVKELYRGGLEPINFQTAADQARELINSWVESQTNGIIRNVLQPSSVDSQTAMVLVNAIVFKGLWEKAFKDEDTQAMPFRVTEQESKPVQMMYQIGLFRVASMASEKMKILELPFASGTMSMLVLLPDEVSGLEQLESIINFEKLTEWTSSNVMEERKIKVYLPRMKMEEKYNLTSVLMAMGITDVFSSSANLSGISSAESLKISQAVHAAHAEINEAGREVVGSAEAGVDAASVSEEFRADHPFLFCIKHIATNAVLFFGRCVSP
# Columns and labels:
# [1] = target: T1, angiotensin converting enzyme (ACE, EC 3.4.15.1); format: biochemical; conditions: for IC50: read-out: ACEI activity IC50, synthetic peptides; for ACEI activity in vitro (in words): peptides
# Procedure: The inhibitory activity of the angiotensin converting enzyme (ACE) is measured in vitro according to the method of D. W. Cushman and H. S. Cheung (Spectrophotometric assay and properties of the angiotensin-converting enzyme of rabbit lung. Biochemical Pharmacology, 1971, 20: 1637-1648), later on modified by Y. K. Kim, S. Yoon, D. Y. Yu, B. Lönnerdal and B. H. Cheung (Novel angiotensin-I-converting enzyme inhibitory peptides derived from recombinant human αs1-casein expressed in Escherichia coli, Journal of Dairy Research 1999, 66, 431-439).
# The substrate hippuryl histidyl leucine (HHL, Sigma Chemicals Co., St. Louis, Mo., USA) is dissolved in a 0.1 M borate buffer with 0.3 M NaCl pH 8.3 to obtain a final concentration of 5 mM. To 100 μl of substrate are added 40 μl of each of the samples whose ACEI activity it is wished to determine. The ACE enzyme (EC 3.4.15.1, Sigma) is added, dissolved in 50% glycerol and diluted 1/10 in bidistilled water at the moment of conducting the assay. The reaction is carried out at 37° C. for 30 minutes in a water-bath. The enzyme is deactivated by lowering the pH with 150 μl of 1 N HCl. The hippuric acid formed is extracted with 1000 μl of ethyl acetate. Following vortex stirring for 20 seconds, it is centrifuged at 4000 rpm for 10 minutes at room temperature. 750 μl of the organic phase are taken and evaporated by heating at 95° C. for 10 minutes. The hippuric acid residue is redissolved in 800 μl of bidistilled water and, following stirring for 20 seconds, the absorbency at 228 nm is measured in a Dur-70 spectrophotometer from Beckman Instruments, Inc., Fullerton, USA.
# In order to calculate the percentage of ACEI activity, the following formula is used
# The blank is used for correcting the background absorbency. This contains substrate, enzyme and 20 μl of bidistilled water in place of the sample, and the reaction is halted at zero time. The control implies a hundred percent of the enzymatic action on the substrate in the absence of inhibitors and contains 20 μl of water in place of the sample and is incubated the same time as the sample.
# The results are presented as the IC50 (μM or μg/ml) or concentration at which 50% of the enzyme's activity is inhibited. The concentration of protein is determined by means of the bicinchonomic acid (BCA) assay (Pierce, Rockford, Ill., USA) using bovine seroalbumin as reference.
# [2] = tested on: spontaneously hypertensive rats (SHR); test: Antihypertensive activity: systolic arterial pressure (tail cuff) in spontaneously hypertensive rats; format: in vivo, rat; conditions: for time of maximum drop in SAP after administration: intragastric probe; for drop in systolic arterial pressure (SAP) / anti-hypertensive activity (in words): single administration by intragastric probe
# Procedure: (§1) The effect is studied of various identified peptides and of some products containing them (for example egg white hydrolysed with pepsin for 3 hours and the fraction of it less than 3000 Da) on the arterial pressure of spontaneously hypertensive rats (SHR) and Wistar-Kyoto rats (WKY) which are the normotense controls for the SHR.
# (§2) This study is conducted with SHR (10) and WKY of 17-24 weeks old and weight between 300 and 350 g, coming from Charles River Laboratories España, S. A. The rats are kept in cages of five by five and maintained at a stable temperature of 25° C. with light-dark cycles of 12 hours, ingesting freely available water and food. In order to carry out the measurement of systolic arterial pressure (SAP) “tail cuff” equipment is used (Le5001, Letica) which automatically provides a digital value of the SAP and records and facilitates the cardiac frequency of the animals. Various measurements are made and the average of all of them is obtained in order to achieve a reliable value of the SAP. Before positioning the cuff and transducer in the tail of the rats, the rats are exposed to a temperature of close to 30° C. in order to facilitate dilation of the caudal artery. Also, in order to ensure the reliability of the measurement, the animals are made to get used to the procedure for two weeks prior to conducting each assay in question.
# (§3) The administration of the products to be assayed is done by means of an intragastric probe in a time margin of between 9 and 10 o'clock in the morning. The SHR used for the study had SAP values of between 230 and 280 mm Hg. The WKY used for the study at that moment had SAP values of between 160 and 200 mm Hg. Measurements of the SAP were taken from the animals periodically, every 2 hours, up to 8 hours post-administration of the products to be assayed; in addition, a SAP measurement was taken 24 hours after the administration of those products. As negative control (in order to establish the circadian variation of the SAP in probed rats) the measurements of the SAP obtained in rats which had been administered 1 ml of water by means of intragastric probe were used. As positive control, the measurements of the SAP obtained in rats which had been administered 50 mg/kg of Captopril (prototype ACEI drug) by means of intragastric probe were used. This dose of Captopril was administered to each rat in a volume of 1 ml. In order to establish the effect of the unhydrolysed egg white on the arterial pressure of the animals, similar assays to those described above were conducted, in which the animals were treated by the same procedure with 200 mg/kg of previously freeze-dried egg white (reference).
# The results obtained are grouped and the mean±the standard error of measurement (SEM) is obtained for a minimum of 9 homogenous assays. The data of the treated animals are always compared with the data deemed to be a negative control. In order to compare them and obtain the statistical significance, Student's t-test for unpaired data is used and the difference for values of p<0.05 is considered significant.
# [3] = tested on: Wistar-Kyoto rats (WKY); test: Systolic arterial pressure (tail cuff) in normotense Wistar-Kyoto rats; format: in vivo, rat; conditions: highest dose used, intragastric probe
# Procedure: as §1, §2, §3
# The results obtained are grouped and the mean±the standard error of measurement (SEM) is obtained for a minimum of 9 homogenous assays. […]
molecule,measurement,setting,value
"CC[C@H](C)[C@H](NC(=O)[C@H](CCC(N)=O)NC(=O)[C@@H](N)Cc1ccc(O)cc1)C(=O)NCC(=O)N[C@@H](CC(C)C)C(=O)O [SEQ. ID. N^o 1, YQIGL] (H-YQIGL-OH; N-terminus and C-terminus assumed)",IC50,[1],174 µM
"CC[C@H](C)[C@H](N)C(=O)N[C@H](C(=O)N[C@@H](Cc1ccccc1)C(=O)O)C(C)C [SEQ. ID. N^o 2, IVF]",time of maximum drop in SAP after administration,[2],6 h
same,drop in systolic arterial pressure (SAP) / anti-hypertensive activity (in words),[2],possess anti-hypertensive activity; also recorded: significant dose-dependent drop in the SAP; also recorded: clear and pronounced anti-hypertensive effect; also recorded: display anti-hypertensive activity
same,ACEI activity in vitro (in words),[1],potent ACEI activity
same,change in SAP in normotense rats (in words),[3],not in normotensed Wistar-Kyoto rats; also recorded: none of these compounds modifies the SAP
"CC(C)C[C@H](NC(=O)[C@H](Cc1ccccc1)NC(=O)[C@@H]1CCCN1C(=O)[C@H](Cc1c[nH]cn1)NC(=O)[C@H](CC(=O)O)NC(=O)[C@H](C)NC(=O)[C@@H](N)CCCNC(=N)N)C(=O)O [SEQ. ID. N^o 3, RADHPFL] (H-RADHPFL-OH; N-terminus and C-terminus assumed)",time of maximum drop in SAP after administration,[2],6 h
same,drop in systolic arterial pressure (SAP) / anti-hypertensive activity (in words),[2],possess anti-hypertensive activity; also recorded: significant dose-dependent drop in the SAP; also recorded: clear and pronounced anti-hypertensive effect; also recorded: display anti-hypertensive activity
same,ACEI activity in vitro (in words),[1],potent ACEI activity
same,IC50,[1],6.2 µM
same,change in SAP in normotense rats (in words),[3],not in normotensed Wistar-Kyoto rats; also recorded: none of these compounds modifies the SAP
"CC[C@H](C)[C@H](NC(=O)[C@H](CC(=O)O)NC(=O)[C@@H](N)CCCNC(=N)N)C(=O)N[C@@H](CC(C)C)C(=O)N[C@@H](CC(N)=O)C(=O)N[C@@H](CCC(N)=O)C(=O)O [SEQ. ID. N^o 7, RDILNQ] (H-RDILNQ-OH)",IC50,[1],436 µM
"CSCC[C@H](NC(=O)[C@H](C)NC(=O)[C@H](CC(C)C)NC(=O)[C@H](C)NC(=O)[C@@H](N)CO)C(=O)O [SEQ. ID. N^o 8, SALAM] (H-SALAM-OH)",IC50,[1],229 µM
"CC[C@H](C)[C@H](NC(=O)[C@H](CO)NC(=O)[C@@H](N)CCC(=O)O)C(=O)N[C@H](C(=O)N[C@@H](CC(N)=O)C(=O)N[C@@H](Cc1ccccc1)C(=O)O)[C@@H](C)CC [SEQ. ID. N^o 12, ESIINF] (H-ESIINF-OH)",IC50,[1],> 1000 µM
CC(C)C[C@H](NC(=O)CNC(=O)[C@H](CO)NC(=O)[C@@H](NC(=O)[C@H](CCC(=O)O)NC(=O)[C@H](CC(=O)O)NC(=O)[C@@H]1CCCN1C(=O)[C@H](CC(C)C)NC(=O)[C@H](CC(C)C)NC(=O)[C@@H](N)C(C)C)C(C)C)C(=O)O [SEQ. ID. N^o 13] (H-VLLPDEVSGL-OH),IC50,[1],> 1000 µM
"CC[C@H](C)[C@H](NC(=O)[C@H](CC(C)C)NC(=O)[C@@H](N)CCC(=O)O)C(=O)N[C@@H](CC(N)=O)C(=O)O [SEQ. ID. N^o 14, ELIN] (H-ELIN-OH)",IC50,[1],> 1000 µM
CC[C@H](C)[C@H](NC(=O)[C@@H]1CCCN1C(=O)[C@H](CCC(=O)O)NC(=O)[C@H](CC(C)C)NC(=O)CNC(=O)CNC(=O)[C@H](CCCNC(=N)N)NC(=O)[C@@H](N)Cc1ccc(O)cc1)C(=O)N[C@@H](CC(N)=O)C(=O)N[C@@H](Cc1ccccc1)C(=O)O [SEQ. ID. N^o 15] (H-YRGGLEPINF-OH),IC50,[1],> 1000 µM
B1,ACEI activity IC50,"[1]; protein concentration, product as such",> 750 µg/mL
